Results: US20240197761A1, “FUCOSYLATION AND IMMUNE MODULATION IN CANCER” (H. LEE MOFFITT CANCER CENTER AND RESEARCH INSTITUTE, INC., priority 2021, published 2024)

Assays:
[1] = system: SM1 tumors; assay: Anti-PD-1 mouse model, SM1: tumor growth and flow cytometric profiling of tumors and draining lymph nodes (Table 2); assay type: in vivo, C57BL/6 mice
Source text: FIGS. 21A and 21B Administration of combination L-fucose and anti-PD-1 suppresses tumors and increases intra-tumoral CD4+T central and effector memory cells (a) Volumetric growth curves for SW1 tumors in C3H/HeN mice (left) and SM1 tumors in C57BL/6 mice (right) fed L-fucose (LF) and treated with PBS (control) or anti-PD-1. (concurrent initiation of LF anti-PD1 (▾)). The tumor growth curves are means±SEM from ≥7 mice per group. (b) Volumetric growth curves for SM1 tumors in C57BL/6 mice fed ±L-fucose (LF) and treated with PBS (control) or anti-PD-1 (PD-1). (concurrent initiation of LF±PD1 (▾)). The tumor growth curves are means±SEM from ≥7 mice per group. *=p<0.05. At Day 7 (prior to administration of LF or PD1), Day 21 (endpoint for tumors of control-treated mice), Day 31 (endpoint for tumors of LF-treated mice), Day 63 (endpoint for tumors of PD1-treated mice), the primary tumors (Tumor) and draining lymph nodes (LN) of 4-5 mice per treatment group were analyzed by flow cytometry for intratumor levels of CD4+ and CD8+T subpopulations (naive/terminal, stem central/central/effector memory) and dendritic cell (DC) subpopulations (cDC1, cDC2, and monocyte-derived DC (moDC)) as in FIG. 15. Proportions of CD4+, CD8+, and DC subpopulations in each organ at each timepoints are represented by the color-coded pie charts (each pie chart represents 4-5 mice). Absolute numbers of the subpopulations per […] of tumor/tissue homogenate at each timepoint are represented in the color-coded column charts.
Tumors of SW1 or SM1 melanoma cells from […] or C57BL/6 mice, respectively) were digested using 1× tumor digest buffer (0.5 mg/mL Collagenase I, 0.5 mg/mL Collagenase IV, 0.25 mg/mL Hyalyronidase V, 0.1 mg/mL DNAse I in HBSS (Millipore Sigma (St. Louis, MO)). Tumors were homogenized using the Miltenyi MACs dissociator. Red blood cells were lysed using ACK lysis buffer (Life Technologies, (Grand Island, NY)). Tumor homogenate cells were counted using a standard hemocytometer.
Total TILs were gated first to single cells (based on forward scatter height vs width, followed by side scatter height vs. width). Live cells were gated from the Zombie negative population from the population above. TILs were gated based on splenocyte size from a control spleen. Individual immune subpopulations were sub-gated from the total TIL population using the following staining criteria: CD3+ for CD3+ T cells; CD3+/CD4+/CD8− for CD4+T cells; CD3+/CD4−/CD8+ for CD8+ T cells, CD11c+/CD11b+ for DCs; either NK1.1 (for C57/BL6 mice) or DX5 (for C3H/HeJ) for NK cells; CD11b+/GR1+ for MDSC-like cells; and F4/80+ for macrophages. Single-cell suspensions from tumor and spleen tissue were stained with Live/Dead Zombie NIR (Biolegend, (San Diego, CA)) at 1:1,000 in PBS for 20 min. Cell suspensions were spun down and stained with the following with antibodies at 0.5 μg/ml per antibody: APC anti-mouse CD3, Pacific Blue anti-mouse CD4, BV785 anti-mouse CD8, PerCP anti-mouse CD25, FITC anti-mouse F4/80, PeCy7 anti-mouse CD11c, PE anti-mouse NK1.1 or PE anti-mouse DX5, and PerCP-Cy5.5 anti-mouse CD11 b. After staining, the cells were washed and fixed (2% formaldehyde), followed by another wash and flow cytometric analysis. The compensation controls were prepared using 0.5 μg/mL of each antibody with UltraComp eBeads, (ThermoFisher Scientific (Waltham, MA)). All samples were subject to flow cytometric profiling using a LSR Flow Cytometer (BD Biosciences (San Jose, CA)) and analysis as indicated using FlowJo software (BD Biosciences (San Jose, CA)).
SW1 or SM1 mouse melanoma cells were injected into syngeneic C3H/HeN female or C57BL/6 male mice, respectively. After approximately 7 days, when the mice tumors reached −150 mm^3, the mice were either supplemented with or without 100 mM L-fucose (Biosynth (Oak Terrace, IL)) via drinking water, which was provided ad libitum. […]

[2] = system: TUBO (mouse BC); assay: TUBO breast cancer growth in immunodeficient mice ± L-fuc; assay type: in vivo; settings: immunodeficient NSG mice ± 500 mM L-fuc (FIG. 3A)

C[C@H](O)[C@@H](O)[C@@H](O)[C@H](O)C=O [L-fucose]
CD4 central memory, average # of cells ([1]; Day 21, lymph nodes): 592.12 per 10^6 cells of total tumor | CD4 effector memory, average # of cells ([1]; Day 21, lymph nodes): 1155.12 per 10^6 cells of total tumor | CD4 naïve, average # of cells ([1]; Day 21, lymph nodes): 24832.36 per 10^6 cells of total tumor | CD4 stem central memory, average # of cells ([1]; Day 21, lymph nodes): 512.17 per 10^6 cells of total tumor | CD8 central memory, average # of cells ([1]; Day 21, lymph nodes): 1017.54 per 10^6 cells of total tumor | CD8 effector memory, average # of cells ([1]; Day 21, lymph nodes): 4093.80 per 10^6 cells of total tumor | CD8 naïve, average # of cells ([1]; Day 21, lymph nodes): 11896.39 per 10^6 cells of total tumor | CD8 stem central memory, average # of cells ([1]; Day 21, lymph nodes): 192.89 per 10^6 cells of total tumor | cDC1, average # of cells ([1]; Day 21, lymph nodes): 9395.57 per 10^6 cells of total tumor | cDC2, average # of cells ([1]; Day 21, lymph nodes): 13997.11 per 10^6 cells of total tumor | moDC, average # of cells ([1]; Day 21, lymph nodes): 1788.45 per 10^6 cells of total tumor | CD4+ CRTAM+, average # of cells ([1]; Day 21, tumors): 361.60 per 10^6 cells of total tumor | CD4 central memory, average # of cells ([1]; Day 21, tumors): 19.50 per 10^6 cells of total tumor | CD4 effector memory, average # of cells ([1]; Day 21, tumors): 302.98 per 10^6 cells of total tumor | CD4 naïve, average # of cells ([1]; Day 21, tumors): 186.42 per 10^6 cells of total tumor | CD4 stem central memory, average # of cells ([1]; Day 21, tumors): 3.22 per 10^6 cells of total tumor | CD8+ GRZB+, average # of cells ([1]; Day 21, tumors): 14146.30 per 10^6 cells of total tumor | CD8 central memory, average # of cells ([1]; Day 21, tumors): 25.37 per 10^6 cells of total tumor | CD8 effector memory, average # of cells ([1]; Day 21, tumors): 889.74 per 10^6 cells of total tumor | CD8 naïve, average # of cells ([1]; Day 21, tumors): 81.09 per 10^6 cells of total tumor | CD8 stem central memory, average # of cells ([1]; Day 21, tumors): 1.53 per 10^6 cells of total tumor | cDC1, average # of cells ([1]; Day 21, tumors): 2032.24 per 10^6 cells of total tumor | cDC2, average # of cells ([1]; Day 21, tumors): 12762.45 per 10^6 cells of total tumor | moDC, average # of cells ([1]; Day 21, tumors): 570.99 per 10^6 cells of total tumor | CD4 central memory, average # of cells ([1]; Day 31, lymph nodes): 424.67 per 10^6 cells of total tumor | CD4 effector memory, average # of cells ([1]; Day 31, lymph nodes): 6638.79 per 10^6 cells of total tumor | CD4 naïve, average # of cells ([1]; Day 31, lymph nodes): 30715.03 per 10^6 cells of total tumor | CD4 stem central memory, average # of cells ([1]; Day 31, lymph nodes): 408.72 per 10^6 cells of total tumor | CD8 central memory, average # of cells ([1]; Day 31, lymph nodes): 286.54 per 10^6 cells of total tumor | CD8 effector memory, average # of cells ([1]; Day 31, lymph nodes): 2478.29 per 10^6 cells of total tumor | CD8 naïve, average # of cells ([1]; Day 31, lymph nodes): 12415.41 per 10^6 cells of total tumor | CD8 stem central memory, average # of cells ([1]; Day 31, lymph nodes): 56.84 per 10^6 cells of total tumor | cDC1, average # of cells ([1]; Day 31, lymph nodes): 5781.73 per 10^6 cells of total tumor | cDC2, average # of cells ([1]; Day 31, lymph nodes): 22628.85 per 10^6 cells of total tumor | moDC, average # of cells ([1]; Day 31, lymph nodes): 7315.56 per 10^6 cells of total tumor | CD4+ CRTAM+, average # of cells ([1]; Day 31, tumors): 112.92 per 10^6 cells of total tumor | CD4 central memory, average # of cells ([1]; Day 31, tumors): 28.68 per 10^6 cells of total tumor | CD4 effector memory, average # of cells ([1]; Day 31, tumors): 297.82 per 10^6 cells of total tumor | CD4 naïve, average # of cells ([1]; Day 31, tumors): 401.23 per 10^6 cells of total tumor | CD4 stem central memory, average # of cells ([1]; Day 31, tumors): 6.29 per 10^6 cells of total tumor | CD8+ GRZB+, average # of cells ([1]; Day 31, tumors): 5679.05 per 10^6 cells of total tumor | CD8 central memory, average # of cells ([1]; Day 31, tumors): 26.40 per 10^6 cells of total tumor | CD8 effector memory, average # of cells ([1]; Day 31, tumors): 202.98 per 10^6 cells of total tumor | CD8 naïve, average # of cells ([1]; Day 31, tumors): 223.96 per 10^6 cells of total tumor | CD8 stem central memory, average # of cells ([1]; Day 31, tumors): 3.15 per 10^6 cells of total tumor | cDC1, average # of cells ([1]; Day 31, tumors): 200.82 per 10^6 cells of total tumor | cDC2, average # of cells ([1]; Day 31, tumors): 5753.01 per 10^6 cells of total tumor | moDC, average # of cells ([1]; Day 31, tumors): 1107.62 per 10^6 cells of total tumor | intratumoral CD4+T central and effector memory cells ([1]; L-fuc alone (FIG. 21b)): increased | tumor suppression in combination with anti-PD1 ([1]; SM1 model): augmented durable suppression | tumor suppression, single agent ([1]; SM1 model (FIG. 21a right)): less tumor suppressive than anti-PD1 alone | TUBO tumor growth [2]: not effected
